Legend:
[1] = tested on: HCT-15 cells; experiment: 48-hour cellular proliferation assay, sulforhodamine stain (human colon adenocarcinoma, MDR positive); type: cell-based; conditions: for IC50 / inhibition at 100 µM: Homo sapiens
Experimental: (§1) Compounds of this invention were tested in a 48-hour cellular proliferation assay that uses human colon adenocarcinoma, MDR positive (HCT-15) cells, and human lung large cell carcinoma, MDR negative (NCI-H460) cells, in the 96-well microtitre format described in Skehan P., et al. New Colorimetric Cytotoxicity Assay for Anticancer Drug Screening. 1990, J. Natl. Cancer Inst. 82:1107-1112, hereby incorporated by reference. Briefly, the wells of a microtitre plate were charged sequentially with cultured cells and compounds of the invention (1.0×10^-4 to 1.0×10^-11 M in 10% DMSO prepared by dissolving compounds of the invention in DMSO and adding 11 μL of the DMSO solution to 100 μL of culture medium for a final DMSO concentration of 10%). Two of the following controls were also present in each microtitre plate: a solvent (DMSO) control without drug that yielded a 0% inhibition level and a trichloroacetic acid-treated well that yielded a 100% inhibition level. The cells were grown in culture (37° C., 5% CO2 atmosphere) for 48 hours then fixed by the addition of trichloroacetic acid. The wells were stained with sulforhodamine, washed with 1% acetic acid, and treated with 0.01 M tris buffer (100 μL) to solubilize the adherent dye. The absorbance of the dye solution was measured with a Molecular Devices SpectraMax340 plate reader. Percent inhibition and Inhibitory Concentrations (IC50) values were obtained by calculating the proportional response of the experimental values to the absorbance values of the controls.

[2] = tested on: NCI-H460 cells; experiment: 48-hour cellular proliferation assay, sulforhodamine stain (human lung large cell carcinoma, MDR negative); type: cell-based; conditions: for IC50 / inhibition at 100 µM: Homo sapiens; for IC50: NCI-H460 cells
Experimental: as §1

IC50 ([1]; values in nM)	IC50 ([2]; values in nM)	Compound	inhibition at 100 µM ([1]; 10^-4 M)	inhibition at 100 µM ([2]; NCI-460 cells, 10^-4 M)	further results
170 nM	210 nM	COCn1ccc2cc(C3=NCC(c4cc(OC)c(OC)c(OC)c4)O3)ccc21 (centres unmarked) [Example 70, 2-(1-methoxymethyl-5-indolyl)-5-(3,4,5-trimethoxyphenyl)-Δ2,3-oxazoline]	–	–	–
5 nM	17 nM	COc1cc(C2CN=C(c3ccc4c(c3)cc(C)n4C)O2)cc(OC)c1OC (centres unmarked) [Example 71]	–	–	–
20 nM	43 nM	COc1cc(C2CN=C(c3cc(F)c4[nH]ccc4c3)O2)cc(OC)c1OC (centres unmarked) [Example 63, 2-(7-fluoro-5-indolyl)-5-(3,4,5-trimethoxyphenyl)-Δ2,3-oxazoline]	–	–	–
440 nM	470 nM	COc1cc(C2CN=C(c3ccn(C)c(=O)c3)O2)cc(OC)c1OC (centres unmarked) [Example 46, 2-(1-methyl-1H-pyridin-2-on-4-yl)-5-(3,4,5-trimethoxyphenyl)-Δ2,3-oxazoline]	–	–	–
1.9 nM	1.8 nM	COc1cc(C2CN=C(c3ccc4c(ccn4C(F)F)c3)O2)cc(OC)c1OC (centres unmarked) [Example 61, 2-(1-difluoromethylindol-5-yl)-5-(3,4,5-trimethoxyphenyl)-Δ2,3-oxazoline]	–	–	–

Continued, compound first:

Compound	IC50 ([1]; values in nM)	IC50 ([2]; values in nM)	inhibition at 100 µM ([1]; 10^-4 M)	inhibition at 100 µM ([2]; NCI-460 cells, 10^-4 M)	further results
COc1cc(C2CN=C(c3cccc4c3ccn4C)O2)cc(OC)c1OC (centres unmarked) [Example 30, 2-(1-methylindol-4-yl)-5-(3,4,5-trimethoxyphenyl)-Δ2,3-oxazoline]	24 nM	28 nM	–	–	–
COc1ccc(C2=NCC(c3cc(OC)c(OC)c(OC)c3)O2)cc1OC (centres unmarked) [Example 17, 2-(3,4-dimethoxyphenyl)-5-(3,4,5-trimethoxyphenyl)-Δ2,3-oxazoline]	–	–	91%	85.8%	–
COc1cc(C2CN=C(c3ccc4c(c3)nc(C)n4C)O2)cc(OC)c1OC (centres unmarked) [Example 75, 2-(1,2-dimethylbenzimidazol-5-yl)-5-(3,4,5-trimethoxyphenyl)-Δ2,3-oxazoline]	–	–	–	–	IC50 ([1]; values given in μM): 1900 nM; IC50 ([2]; values given in μM): 3800 nM
COc1cc(C2CN=C(c3cn(C)c4ccccc34)O2)cc(OC)c1OC (centres unmarked) [Example 33, 2-(1-methylindol-3-yl)-5-(3,4,5-trimethoxyphenyl)-Δ2,3-oxazoline]	32 nM	120 nM	–	–	–
COc1ccc(C2=NCC(c3cc(OC)c(OC)c(OC)c3)O2)cc1 (centres unmarked) [Example 3, 2-(4-methoxyphenyl)-5-(3,4,5-trimethoxyphenyl)-Δ2,3-oxazoline]	–	–	100%	100%	–
COc1cc(C2CN=C(c3ccc4c(ccn4C)c3)O2)cc(OC)c1OC (centres unmarked) [Example 6, 2-(1-methylindol-5-yl)-5-(3,4,5-trimethoxyphenyl)-Δ2,3-oxazoline]	–	–	100%	100%	–
COc1cc(C2CN=C(c3ccc4c(c3)CCN4C)O2)cc(OC)c1OC (centres unmarked) [Example 21, 2-(1-methyl-2,3-dihydro-indol-5-yl)-5-(3,4,5-trimethoxyphenyl)-Δ2,3-oxazoline]	–	–	100%	92.4%	–
COc1cc(C2CN=C(c3ccnc4ccccc34)O2)cc(OC)c1OC (centres unmarked) [Example 37, 2-(4-quinolinyl)-5-(3,4,5-trimethoxyphenyl)-Δ2,3-oxazoline]	–	–	–	–	IC50 ([1]; values given in μM): 44000 nM; IC50 ([2]; values given in μM): 37000 nM
CCOc1ccc(C2=NCC(c3cc(OC)c(OC)c(OC)c3)O2)cc1 (centres unmarked) [Example 16, 2-(4-ethoxyphenyl)-5-(3,4,5-trimethoxyphenyl)-Δ2,3-oxazoline]	–	–	96.2%	90.7%	–
COc1cc(C2CN=C(c3cc(Br)cc4c3OCC4)O2)cc(OC)c1OC (centres unmarked) [Example 19, 2-(2,3-dihydro-5-bromo-7-benzofuranyl)-5-(3,4,5-trimethoxyphenyl)-Δ2,3-oxazoline]	–	–	98.9%	100%	–
2-(3-hydroxy-4-methoxyphenyl)-4-dimethyl-5-(3,4,5-trimethoxyphenyl)-Δ2,3-oxazoline [Example 13]	–	–	–	–	HCT-15 (% Inhibition at 10^-4 M) ([1]; 10^-4 M): 100%; NCI-460 (% Inhibition at 10^-4 M) ([2]; NCI-460 cells, 10^-4 M): 100%
COc1cc(C2CN=C(c3ccc4c(ccn4C(=S)SC)c3)O2)cc(OC)c1OC (centres unmarked) [Example 56, 2-(1-methlthiothiocarbonylindol-5-yl)-5-(3,4,5-trimethoxyphenyl)-Δ2,3-oxazoline]	–	–	–	–	IC50 ([1]; values given in μM): 12000 nM; IC50 ([2]; values given in μM): 6000 nM
COc1ccc(C2=NCC(c3cc(OC)c(OC)c(OC)c3)O2)cc1O (centres unmarked) [Example 2, 2-(3-hydroxy-4-methoxyphenyl)-5-(3,4,5-trimethoxyphenyl)-Δ2,3-oxazoline]	–	–	100%	100%	–
COc1cc(C2CN=C(c3cc4ccccc4n3C)O2)cc(OC)c1OC (centres unmarked) [Example 34, 2-(1-methyl-indol-2-yl)-5-(3,4,5-trimethoxyphenyl)-Δ2,3-oxazoline]	650 nM	1500 nM	–	–	–

Source: US6228868A, “Oxazoline antiproliferative agents” (Abbott Laboratories, priority 1999, dated 2001)
